*1 amine or outer side, *2 acyl side, *3 side chain or, on linkers, in order; H or OH if unused. Where a SMILES comes first, the peptide text is derived from it. [ ]: non-standard residue; d: D form. The star is where a group is joined. X1 = O=C([C@H](CCc1cn(C2CCC(OC3O[C@H](CO[C@H]4O[C@H](CO[C@H]5O[C@H](CO)[C@@H](O)[C@H](O)[C@@H]5O[C@H]5O[C@H](CO)[C@@H](O)[C@H](O)[C@@H]5O)[C@@H](O)[C@H](O[C@H]5O[C@H](CO)[C@@H](O)[C@H](O)[C@@H]5O[C@H]5O[C@H](CO)[C@@H](O)[C@H](O)[C@@H]5O)[C@@H]4O)[C@@H](O)[C@H](O[C@H]4O[C@H](CO)[C@@H](O)[C@H](O)[C@@H]4O[C@H]4O[C@H](CO)[C@@H](O)[C@H](O)[C@@H]4O[C@H]4O[C@H](CO)[C@@H](O)[C@H](O)[C@@H]4O)[C@@H]3O)CC2)nn1)N[*:1])[*:2]; For = O=C*
Test system: 2G12
Assay: Binding curve and KD determination of 2G12-glycopeptide interaction (radiolabeled glycopeptide, protein G magnetic bead capture, scintillation counting)
Method in brief: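 Radiolabeled glycopeptide (<4 pmol) from PURE-system translation with click glycosylation was incubated with 100 nM 2G12 at room temperature. Complexes were captured on protein G beads and eluted at 70° C. Bound and unbound fractions were counted by scintillation, run at least in triplicate, and KD derived from binding curves.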

| Compound | Fmax [%] (Table 4, maximal fraction bound from curve fit, error = standard error of fit) | Kd (Table 4, ribosomally translated radiolabeled glycopeptide with His6/FLAG tag, room temperature, fit Fbound=(Fmax[2G12])/(KD+[2G12]), error = standard error of fit) [nM] | Fmax [%] (Table 6 mutational analysis, radioactive bead binding assay) | Kd (Table 6 mutational analysis, radioactive bead binding assay, ribosomally translated) [nM] | binding to 2G12 after truncation (in words) (truncated clones, Table 6) |
| --- | --- | --- | --- | --- | --- |
| CC[C@H](C)[C@H](NC(=O)[C@@H](NC(=O)[C@@H](NC(=O)[C@H](Cc1c[nH]cn1)NC(=O)[C@H](CC(N)=O)NC(=O)[C@H](CC(=O)O)NC(=O)[C@H](CCc1cn(C2CCC(OC3O[C@H](CO[C@H]4O[C@H](CO[C@H]5O[C@H](CO)[C@@H](O)[C@H](O)[C@@H]5O[C@H]5O[C@H](CO)[C@@H](O)[C@H](O)[C@@H]5O)[C@@H](O)[C@H](O[C@H]5O[C@H](CO)[C@@H](O)[C@H](O)[C@@H]5O[C@H]5O[C@H](CO)[C@@H](O)[C@H](O)[C@@H]5O)[C@@H]4O)[C@@H](O)[C@H](O[C@H]4O[C@H](CO)[C@@H](O)[C@H](O)[C@@H]4O[C@H]4O[C@H](CO)[C@@H](O)[C@H](O)[C@@H]4O[C@H]4O[C@H](CO)[C@@H](O)[C@H](O)[C@@H]4O)[C@@H]3O)CC2)nn1)NC(=O)[C@@H](NC(=O)[C@H](CCCCN)NC(=O)[C@H](CCC(=O)O)NC(=O)[C@H](CCCNC(=N)N)NC(=O)[C@H](CCCCN)NC(=O)[C@H](CS)NC(=O)[C@H](CC(N)=O)NC(=O)[C@@H](NC(=O)[C@H](CCCCN)NC(=O)[C@@H](NC(=O)[C@H](C)NC(=O)[C@H](CCc1cn(C2CCC(OC3O[C@H](CO[C@H]4O[C@H](CO[C@H]5O[C@H](CO)[C@@H](O)[C@H](O)[C@@H]5O[C@H]5O[C@H](CO)[C@@H](O)[C@H](O)[C@@H]5O)[C@@H](O)[C@H](O[C@H]5O[C@H](CO)[C@@H](O)[C@H](O)[C@@H]5O[C@H]5O[C@H](CO)[C@@H](O)[C@H](O)[C@@H]5O)[C@@H]4O)[C@@H](O)[C@H](O[C@H]4O[C@H](CO)[C@@H](O)[C@H](O)[C@@H]4O[C@H]4O[C@H](CO)[C@@H](O)[C@H](O)[C@@H]4O[C@H]4O[C@H](CO)[C@@H](O)[C@H](O)[C@@H]4O)[C@@H]3O)CC2)nn1)NC=O)[C@@H](C)O)[C@@H](C)O)[C@@H](C)O)C(C)C)[C@@H](C)O)C(=O)N[C@@H](CCc1cn(C2CCC(OC3O[C@H](CO[C@H]4O[C@H](CO[C@H]5O[C@H](CO)[C@@H](O)[C@H](O)[C@@H]5O[C@H]5O[C@H](CO)[C@@H](O)[C@H](O)[C@@H]5O)[C@@H](O)[C@H](O[C@H]5O[C@H](CO)[C@@H](O)[C@H](O)[C@@H]5O[C@H]5O[C@H](CO)[C@@H](O)[C@H](O)[C@@H]5O)[C@@H]4O)[C@@H](O)[C@H](O[C@H]4O[C@H](CO)[C@@H](O)[C@H](O)[C@@H]4O[C@H]4O[C@H](CO)[C@@H](O)[C@H](O)[C@@H]4O[C@H]4O[C@H](CO)[C@@H](O)[C@H](O)[C@@H]4O)[C@@H]3O)CC2)nn1)C(=O)N[C@@H](CCCNC(=N)N)C(=O)N[C@@H](CO)C(=O)N[C@H](C(=O)N1CCC[C@H]1C(=O)N[C@@H](Cc1c[nH]c2ccccc12)C(=O)N[C@@H](Cc1ccc(O)cc1)C(=O)N[C@H](C(=O)N[C@@H](Cc1ccc(O)cc1)C(=O)N[C@@H](CCCNC(=N)N)C(=O)N[C@@H](Cc1c[nH]c2ccccc12)C(=O)N[C@@H](CC(C)C)C(=O)N1CCC[C@H]1C(=O)N[C@@H](CC(N)=O)C(=O)NCC(=O)N[C@@H](CO)C(=O)NCC(=O)N[C@@H](CO)C(=O)N[C@@H](CC(C)C)C(=O)NCC(=O)N[C@@H](Cc1c[nH]cn1)C(=O)N[C@@H](Cc1c[nH]cn1)C(=O)N[C@@H](Cc1c[nH]cn1)C(=O)N[C@@H](Cc1c[nH]cn1)C(=O)N[C@@H](Cc1c[nH]cn1)C(=O)N[C@@H](Cc1c[nH]cn1)C(=O)N[C@@H](CCCNC(=N)N)C(=O)N[C@@H](CC(=O)O)C(=O)N[C@@H](Cc1ccc(O)cc1)C(=O)N[C@@H](CCCCN)C(=O)N[C@@H](CC(=O)O)C(=O)N[C@@H](CC(=O)O)C(=O)N[C@@H](CC(=O)O)C(=O)N[C@@H](CC(=O)O)C(=O)N[C@@H](CCCCN)C(=O)O)[C@@H](C)O)[C@@H](C)CC (some centres unmarked) [Clone 10V1, XATKTNCKREKTXDNHVTIXRSIPWYTYRWLPN] | 97 ± 2.1 | 1.9 ± 0.17 | – | – | – |
| CC[C@H](C)[C@H](NC(=O)[C@H](CO)NC(=O)[C@H](CCCNC(=N)N)NC(=O)[C@H](CCc1cn(C2CCC(OC3O[C@H](CO[C@H]4O[C@H](CO[C@H]5O[C@H](CO)[C@@H](O)[C@H](O)[C@@H]5O[C@H]5O[C@H](CO)[C@@H](O)[C@H](O)[C@@H]5O)[C@@H](O)[C@H](O[C@H]5O[C@H](CO)[C@@H](O)[C@H](O)[C@@H]5O[C@H]5O[C@H](CO)[C@@H](O)[C@H](O)[C@@H]5O)[C@@H]4O)[C@@H](O)[C@H](O[C@H]4O[C@H](CO)[C@@H](O)[C@H](O)[C@@H]4O[C@H]4O[C@H](CO)[C@@H](O)[C@H](O)[C@@H]4O[C@H]4O[C@H](CO)[C@@H](O)[C@H](O)[C@@H]4O)[C@@H]3O)CC2)nn1)NC=O)C(=O)N1CCC[C@H]1C(=O)N[C@@H](Cc1c[nH]c2ccccc12)C(=O)N[C@@H](Cc1ccc(O)cc1)C(=O)N[C@H](C(=O)N[C@@H](Cc1ccc(O)cc1)C(=O)N[C@@H](CCCNC(=N)N)C(=O)N[C@@H](Cc1c[nH]c2ccccc12)C(=O)N[C@@H](CC(C)C)C(=O)N1CCC[C@H]1C(=O)N[C@@H](CC(N)=O)C(=O)NCC(=O)N[C@@H](CO)C(=O)NCC(=O)N[C@@H](CO)C(=O)N[C@@H](CC(C)C)C(=O)NCC(=O)N[C@@H](Cc1c[nH]cn1)C(=O)N[C@@H](Cc1c[nH]cn1)C(=O)N[C@@H](Cc1c[nH]cn1)C(=O)N[C@@H](Cc1c[nH]cn1)C(=O)N[C@@H](Cc1c[nH]cn1)C(=O)N[C@@H](Cc1c[nH]cn1)C(=O)N[C@@H](CCCNC(=N)N)C(=O)N[C@@H](CC(=O)O)C(=O)N[C@@H](Cc1ccc(O)cc1)C(=O)N[C@@H](CCCCN)C(=O)N[C@@H](CC(=O)O)C(=O)N[C@@H](CC(=O)O)C(=O)N[C@@H](CC(=O)O)C(=O)N[C@@H](CC(=O)O)C(=O)N[C@@H](CCCCN)C(=O)O)[C@@H](C)O (some centres unmarked) [Clone 10V1-Δ19, XRSIPWYTYRWLPN] (For-[X1]RSIPWYTYRWLPNGSGSLGHHHHHHRDYKDDDDK-OH; C-terminus assumed) | – | – | 20 | ~7.5 | tight binding |

From US11345912B2, “Directed evolution of multivalent glycopeptides that tightly bind to target proteins” (Brandeis University, priority 2013, dated 2022)
